System: MyD88
Test: MyD88 protein expression in frontal cortex after ethanol intoxication
Assay type: in vivo, Wistar rats
Conditions: 2-4 h after last ethanol, OEA pre-treatment
Method: The animals were treated with intragastric (i.g.) ethanol 3 times a day using an i.g. cannula (16G needle, Fisher Scientific, Waltham, Mass., USA), following a protocol based on a slightly modified standard 4-day alcohol intoxication pattern (Bernier et al., 2002a, b) (FIG. 1A). The ethanol doses were administered every 8 h for a total time of 4 days. The rats treated with ethanol received an initial loading dose of 5 g/kg of ethanol in a 30% solution (w/v) and then a maximum maintenance dose of 3 g/kg, which were determined based on blood ethanol levels (BEL). This repeated standard alcohol intoxication paradigm kept BEL intoxication relatively constant in a range of sedation/ataxia (190 to 430 mg/dl, Table 3), according to the 6-point alcohol intoxication behavior scale (Majchrowicz, 1975). The mean dose of ethanol/rat/day (days 1-4) was 7.06 g/kg, similar to other studies (Obernier et al., 2002a, b). OEA (5 mg/kg, i.p., except initial dose of 10 mg/kg i.p.; synthesized as described in Giuffrida et al., 2000) was dissolved in the vehicle (5% Tween-80 in saline solution) and injected 10 minutes before each of the administrations of ethanol by an intragastric gavage. […] The autoradiograph was quantified by densitometry (NIH ImageJ® software, National Biosciences, Lincoln, Nebr. USA) and expressed as optical density (OD). […]

SMILES: CCCCCCCC/C=C\CCCCCCCC(=O)NCCO [OEA, oleoylethanolamide]
- Ethanol-induced increase in expression of MyD88 protein: inhibited

Reference: US20190365675A1, “COMPOSITIONS FOR THE PREVENTION AND/OR TREATMENT OF ALCOHOL USE DISORDERS” (SERVICIO ANDALUZ DE SALUD, priority 2016, published 2019)
